Measured values: article PMC8439235, “High-yield synthesis and purification of recombinant human GABA transaminase for high-throughput screening assays” (Journal of Enzyme Inhibition and Medicinal Chemistry, 2021)
Where two headings read alike, the source gives them in different places.

Legend:
bacterial GABA-T = target: T1, bacterial GABA-T (Pseudomonas fluorescens, UniProt Q4KKA1); assay: GABA-T inhibition assay with GABase, NADPH absorbance at 340 nm (Mixture A); format: biochemical; details: for IC50: 10 min preincubation, 25 °C, pH 8.6, 200 µM GABA
T1 sequence (Q4KKA1 1-425): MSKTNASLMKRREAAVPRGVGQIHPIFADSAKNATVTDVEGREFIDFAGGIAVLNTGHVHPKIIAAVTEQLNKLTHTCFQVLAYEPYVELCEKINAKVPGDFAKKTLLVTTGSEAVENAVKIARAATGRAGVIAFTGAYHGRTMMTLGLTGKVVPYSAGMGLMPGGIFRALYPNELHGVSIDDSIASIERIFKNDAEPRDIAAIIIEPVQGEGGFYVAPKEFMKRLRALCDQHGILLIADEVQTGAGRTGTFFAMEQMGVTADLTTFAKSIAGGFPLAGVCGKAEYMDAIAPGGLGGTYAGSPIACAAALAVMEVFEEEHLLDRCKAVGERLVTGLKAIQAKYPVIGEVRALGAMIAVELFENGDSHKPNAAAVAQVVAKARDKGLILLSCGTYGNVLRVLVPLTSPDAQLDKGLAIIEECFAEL
Source text: GABase (Merck, G7509) is a convenient and inexpensive source of SSADH, as it is a commercially available mixture composed of bacterial GABA-T and SSADH obtained from Pseudomonas fluorescens. However, GABase was not able to be used directly in our human GABA-T assay due to the presence of bacterial GABA-T. So we used the bacterial SSADH isolation method as previously described, which allowed large amounts of bacterial SSADH to be isolated quickly and conveniently from GABase by irreversibly inhibiting the bacterial GABA-T activity. Five milligrams of gabaculine (Santa Cruz Biotechnology, sc-200473), a naturally occurring GABA-T irreversible inhibitor, was added to 25 ml of 1 U/mL GABase solution (reconstituted with 50 mM K4P2O7 buffer at pH 8.6), followed by maintaining the reaction at 4 °C for 30 min. The residual gabaculine, which also can inactivate recombinant human GABA-T, was eliminated by dialysis at 4 °C with 2 L of K4P2O7 buffer, changed 3 times per 9 h followed by the final dialysis overnight. The isolated bacterial SSADH was stored at −80 °C for long-term storage.
(§1) All test samples were prepared at a final volume of 200 µl/well in a 96-well plate with a clear flat bottom, and the enzyme reaction was carried out at 25 °C. The final solution of the assay in Figure 3(B) consisted of SSA (0, 12.5, 25, 50, 100, and 200 µM), 2.5 mM β-NADP^+, 1 mM 2-mercaptoethanol (2-ME), and SSADH (from 20 µL of 1 U/mL gabaculine-treated GABase) in 50 mM K4P2O7 buffer (pH 8.6). The final solution of the assay in Figure 3(C) consisted of GABA (0, 100 and 200 µM), 2.5 mM β-NADP^+, 5 mM α-KG, 1 mM 2-ME and each enzymatic mixture (Mixture A: 10 µL of 1 U/mL GABase; Mixture B: 10 µL of 1 U/mL gabaculine-treated GABase; Mixture C: 2 µg of human GABA-T mixed with 10 µL of 1 U/mL gabaculine-treated GABase) in 50 mM K4P2O7 buffer at pH 8.6. The final solution of the assay in Figure 3(D) consisted of 200 µM GABA, 2.5 mM β-NADP^+, 5 mM α-KG, 1 mM 2-ME, SSADH (from Mixture B) and human GABA-T at various concentrations (0.156, 0.313, 0.625, 1.25, 2.5, 5, and 10 µg/mL) in 50 mM K4P2O7 buffer at pH 8.6. […] The final solution of the assay in Figure 4(A) consisted of gabaculine (0, 15.63, 31.25, 62.5, 125, 250, 500, and 1000 nM), 200 µM GABA, 2.5 mM β-NADP^+, 5 mM α-KG, and each enzymatic mixture (A or C) in 50 mM K4P2O7 buffer (pH 8.6) containing or not containing 1 mM 2-ME. […] The change in 340 nm absorbance at 25 °C caused by the conversion of NADP^+ to NADPH, which is proportional to GABA-T activity, was recorded every 4 min kinetically with SpectraMax iD5 Multi-Mode Microplate Reader (Molecular Devices). GABA-T activity was calculated during the linear phase of the reaction, corrected for background from blanks. All experiments were performed in triplicate and data were presented as mean ± SEM (Standard Error of Mean) or each replicate. Data plotting and regression analysis were performed with GraphPad Prism software (Version 9.1.2, GraphPad Software).

recombinant human GABA-T = target: T2, recombinant human GABA-T (Homo sapiens, UniProt P80404); assay: GABA-T inhibition assay, coupled with SSADH, NADPH absorbance at 340 nm (Mixture C); format: biochemical; details: for IC50: IC50 for human GABA-T, 10 min preincubation, 25 °C, pH 8.6, 200 µM GABA
T2 construct: made in house; host or cells: Expi293F human cells, transient transfection
T2 sequence (P80404 29-500): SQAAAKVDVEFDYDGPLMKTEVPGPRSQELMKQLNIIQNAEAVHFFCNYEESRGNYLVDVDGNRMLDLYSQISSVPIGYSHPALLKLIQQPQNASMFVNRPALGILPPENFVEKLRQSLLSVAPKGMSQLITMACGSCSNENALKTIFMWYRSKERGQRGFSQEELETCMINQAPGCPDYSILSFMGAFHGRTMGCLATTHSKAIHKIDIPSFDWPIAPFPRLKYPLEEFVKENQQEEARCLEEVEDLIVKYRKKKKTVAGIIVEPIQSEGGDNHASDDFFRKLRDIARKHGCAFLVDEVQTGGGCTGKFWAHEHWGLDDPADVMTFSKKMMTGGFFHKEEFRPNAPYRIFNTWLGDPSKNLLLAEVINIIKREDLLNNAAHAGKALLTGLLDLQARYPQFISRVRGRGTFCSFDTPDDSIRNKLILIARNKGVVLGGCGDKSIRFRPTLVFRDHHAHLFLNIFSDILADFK
Protocol: as §1

| SMILES | GABA degradation-dependent NADPH synthesis in GABase after treatment (bacterial GABA-T; 5 mg gabaculine in 25 ml of 1 U/mL GABase, 4 °C, 30 min, then dialysis, GABA 0, 100, 200 µM) | IC50 (bacterial GABA-T; IC50 for bacterial GABA-T, absence of 2-ME (multimeric form)) | IC50 (bacterial GABA-T; IC50 for bacterial GABA-T, presence of 1 mM 2-ME (monomeric form)) | IC50 (recombinant human GABA-T; absence of 2-ME (homodimeric/multimeric form)) | IC50 (recombinant human GABA-T; presence of 1 mM 2-ME (monomeric form)) | IC50 (bacterial GABA-T; absence of 2-ME (multimeric form), read-out: IC50 for bacterial GABA-T) | IC50 (bacterial GABA-T; presence of 1 mM 2-ME (monomeric form), read-out: IC50 for bacterial GABA-T) | difference in sensitivity, human vs bacterial GABA-T (recombinant human GABA-T; with 2-ME, monomeric form) | difference in sensitivity, human vs bacterial GABA-T (recombinant human GABA-T; without 2-ME, human homodimeric vs bacterial multimeric form) |
| --- | --- | --- | --- | --- | --- | --- | --- | --- | --- |
| NC1C=CC=C(C(=O)O)C1 (stereo not drawn) [gabaculine] | completely impaired | 0.19 µM | 0.13 µM | 0.22 µM | 0.12 µM | – | – | – | – |
| C=CC(N)CCC(=O)O (stereo not drawn) [vigabatrin] | – | – | – | – | – | 631 µM | 14200 µM | 202 fold | 70 fold |
